Source: ChEMBL document CHEMBL2150867, “Comparative study of the affinity and metabolism of type I and type II binding quinoline carboxamide analogues by cytochrome P450 3A4” (J Med Chem, 2012)

Legend:
Format in all cases: ADME
[1] = molecular target: T1, Cytochrome P450 3A4 (Homo sapiens, UniProt P08684); assay: Binding affinity to recombinant CYP3A4 NF-14 expressed in Escherichia coli at maximum spectrum 420 to 435 and a trough at 390 to 405 nm by UV-Visible spectroscopy; conditions: recombinant enzyme, 0.405 µM
[2] = molecular target: T1, Cytochrome P450 3A4; assay: Intrinsic clearance assessed as CYP3A4-mediated clearance; conditions: recombinant enzyme
[3] = molecular target: T1, Cytochrome P450 3A4; assay: Inhibition of recombinant CYP3A4 NF-14 expressed in Escherichia coli assessed as formation of 6-beta-hydroxytestosterone using testosterone as substrate after 5 mins by HPLC based UV method
[4] = molecular target: T1, Cytochrome P450 3A4; assay: Binding affinity to recombinant CYP3A4 NF-14 expressed in Escherichia coli at maximum spectrum 385 to 390 nm and a trough at 415 to 420 nm by UV-Visible spectroscopy; conditions: recombinant enzyme
[5] = molecular target: T1, Cytochrome P450 3A4; assay: Metabolic stability of the compound assessed as CYP3A4 NF-14-mediated ratio of product formation from functional group oxidation at ring A to aromatic hydroxylation at ring B
[6] = molecular target: T1, Cytochrome P450 3A4; assay: Metabolic stability of the compound assessed as CYP3A4 NF-14-mediated aromatic hydroxylation at ring-B
[7] = molecular target: T1, Cytochrome P450 3A4; assay: (§1) Metabolic stability of the compound assessed as CYP3A4 NF-14-mediated N-demethylation
[8] = molecular target: CYP3A4 (Homo sapiens, UniProt P08684); assay: as §1; conditions: human, CYP3A4 NF-14
[9] = molecular target: T1, Cytochrome P450 3A4; assay: Metabolic stability of the compound assessed as CYP3A4 NF-14-mediated ratio of product formation from functional group oxidation at ring A to aromatic hydroxylation at ring A
[10] = molecular target: T1, Cytochrome P450 3A4; assay: Metabolic stability of the compound assessed as CYP3A4 NF-14-mediated aromatic hydroxylation at ring-A

T1 sequence (P08684 whole entry): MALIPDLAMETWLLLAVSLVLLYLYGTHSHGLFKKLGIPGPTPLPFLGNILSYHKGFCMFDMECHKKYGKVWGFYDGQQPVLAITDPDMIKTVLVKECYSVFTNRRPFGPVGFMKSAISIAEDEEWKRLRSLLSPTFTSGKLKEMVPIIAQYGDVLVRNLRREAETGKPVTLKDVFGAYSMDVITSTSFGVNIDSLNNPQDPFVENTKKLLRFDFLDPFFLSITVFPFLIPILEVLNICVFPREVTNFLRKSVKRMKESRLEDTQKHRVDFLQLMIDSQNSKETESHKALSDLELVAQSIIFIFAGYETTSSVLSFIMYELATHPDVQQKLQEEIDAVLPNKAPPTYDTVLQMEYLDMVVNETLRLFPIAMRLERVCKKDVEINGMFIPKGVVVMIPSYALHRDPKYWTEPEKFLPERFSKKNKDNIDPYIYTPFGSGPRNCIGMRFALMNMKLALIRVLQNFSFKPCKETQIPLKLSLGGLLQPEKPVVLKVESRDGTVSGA
CYP3A4, sequence (P08684 whole entry): as above

| Structure (SMILES) | Activity [1] | CL [2] | Ki [3] | Activity [4] | also measured |
| --- | --- | --- | --- | --- | --- |
| CN(C)c1ccc(NC(=O)c2cc(-c3ccncn3)nc3ccccc23)cc1 | Active | 3.4 µM⁻¹ min⁻¹ | 8.4 µM |  |  |
| COc1ccc(NC(=O)c2cc(-c3ccncn3)nc3ccccc23)cc1 | Active | 3.3 µM⁻¹ min⁻¹ | 2.2 µM |  |  |
| O=C(Nc1ccccc1)c1cc(-c2ccccn2)nc2ccccc12 |  | 1.3 µM⁻¹ min⁻¹ | 14.5 µM | Active |  |
| Cc1ccc(NC(=O)c2cc(-c3cnccn3)nc3ccccc23)cc1 | Active | 3.3 µM⁻¹ min⁻¹ | 2.7 µM |  |  |
| CN(C)c1ccc(NC(=O)c2cc(-c3cnccn3)nc3ccccc23)cc1 | Active | 2.8 µM⁻¹ min⁻¹ | 15.9 µM |  |  |
| Cc1ccc(NC(=O)c2cc(-c3ccncn3)nc3ccccc23)cc1 | Active | 4 µM⁻¹ min⁻¹ | 3 µM |  |  |
| COc1ccc(NC(=O)c2cc(-c3cnccn3)nc3ccccc23)cc1 | Active | 3.4 µM⁻¹ min⁻¹ | 20.1 µM |  |  |
| O=C(Nc1ccccc1)c1cc(-c2cnccn2)nc2ccccc12 | Active | 2.5 µM⁻¹ min⁻¹ | 6.9 µM |  |  |
| CN(C)c1ccc(NC(=O)c2cc(-c3ccccc3)nc3ccccc23)cc1 |  | 9.6 µM⁻¹ min⁻¹ | 14.4 µM | Active | Kcat [6]: 0 s⁻¹; Kcat [7]: 0.465 s⁻¹; Km [8]: 2.9 µM |
| Cc1ccc(NC(=O)c2cc(-c3ccncc3)nc3ccccc23)cc1 | Active | 9.7 µM⁻¹ min⁻¹ | 0.54 µM |  | Ratio [9]: 4.4 |
| O=C(Nc1ccccc1)c1cc(-c2ccncn2)nc2ccccc12 | Active | 3.2 µM⁻¹ min⁻¹ | 2.2 µM |  |  |
| COc1ccc(NC(=O)c2cc(-c3ccccn3)nc3ccccc23)cc1 |  | 2.2 µM⁻¹ min⁻¹ | 11.9 µM | Active |  |
| CN(C)c1ccc(NC(=O)c2cc(-c3ccncc3)nc3ccccc23)cc1 | Active | 12.7 µM⁻¹ min⁻¹ | 0.8 µM |  | Kcat [10]: 0 s⁻¹; Kcat [7]: 0.218 s⁻¹ |

More lines, in order of falling Ki [3], values ahead:

| Activity [1] | CL [2] | Ki [3] | Activity [4] | Structure (SMILES) | also measured |
| --- | --- | --- | --- | --- | --- |
|  | 1 µM⁻¹ min⁻¹ | 32.9 µM | Active | CN(C)c1ccc(NC(=O)c2cc(-c3ccccn3)nc3ccccc23)cc1 |  |
|  | 1.3 µM⁻¹ min⁻¹ | 4.1 µM | Active | O=C(Nc1ccccc1)c1cc(-c2ccccc2)nc2ccccc12 | Ratio [5]: 1.3 |
|  | 3.4 µM⁻¹ min⁻¹ | 3.97 µM | Active | Cc1ccc(NC(=O)c2cc(-c3ccccc3)nc3ccccc23)cc1 | Ratio [5]: 6 |
|  | 2.9 µM⁻¹ min⁻¹ | 3.9 µM | Active | Cc1ccc(NC(=O)c2cc(-c3ccccn3)nc3ccccc23)cc1 |  |
| Active | 12.1 µM⁻¹ min⁻¹ | 0.7 µM |  | O=C(Nc1ccccc1)c1cc(-c2ccncc2)nc2ccccc12 | Ratio [9]: 1.3 |
| Active | 4.4 µM⁻¹ min⁻¹ | 0.54 µM |  | COc1ccc(NC(=O)c2cc(-c3ccncc3)nc3ccccc23)cc1 | Kcat [10]: 0.0217 s⁻¹; Km [10]: 0.7 µM; Ratio [9]: 1.4 |
